88 molecules from ChEMBL document CHEMBL1157539, “Thousands of chemical starting points for antimalarial lead identification” (Nature, 2010) can be followed below.

In the experiment the test system is Plasmodium falciparum. Put plainly: GSK_TCMDC: Inhibition of Plasmodium falciparum 3D7 in whole erythrocytes, using parasite LDH activity as an index of growth. The settings on record: Plasmodium falciparum, 3D7. Type of experiment: functional, organism-based.
The molecule `COc1cccc2c(N/N=C/c3ccccc3[N+](=O)[O-])cc(C)nc12` yielded an XC50 of 424 nM. As for `CN(C)c1cc(NC(=O)Nc2ccccc2)c2ccccc2n1`, the figure is 405 nM; as for `O=C(Cn1c(CCc2cccc(F)c2F)cc(=O)c2cccnc21)N(CCN1CCCC1)Cc1ccc(-c2ccc(C(F)(F)F)cc2)cc1`, 890 nM; as for `CCc1ccc(CN2CCC(CNC(=O)c3cc(-c4cccc(C(F)(F)F)c4)cs3)C2)cc1` (stereo not drawn), 753 nM.

For `CN1CCN(c2ccnc3ccc(NC(=O)Nc4ccc(-c5ccncc5)c5ccccc45)cc23)CC1`, the XC50 came out at 312 nM. `Cc1cc(C)c(C(=O)Nc2n[nH]c3nnc(-c4cccc(F)c4F)cc23)c(C)c1` displayed an XC50 of 1070 nM. The molecule `COCCN1CCC(NCC(C)(C)c2nc(-c3ccc(Cl)c(O)c3)c(-c3ccncc3)[nH]2)CC1` gave an XC50 of 717 nM.

Molecule `N#Cc1nc2ccc(OCCN(Cc3ccccc3C(F)(F)F)c3ccc(C#N)c(C(F)(F)F)c3)cc2s1` displayed an XC50 of 855 nM. In the case of `COc1cc2nc(N3CCN(C(=O)c4ccc(N(C(=O)OC(C)(C)C)C(=O)OC(C)(C)C)cc4)CC3)nc(N)c2cc1OC`, the XC50 worked out at 1000 nM.

In turn, `COc1ccc(NC(=O)CSc2nc(-c3ccccc3Cl)ns2)cc1OC` displayed an XC50 of 759 nM.

Molecule `FC(F)(F)c1cccc(-c2cc(NCCCn3ccnc3)nc(-c3ccncc3)n2)c1` gave an XC50 of 105 nM. As for `C[C@H]1CN(Cc2cccc(-c3cc(CNC(=O)c4cccc(CN5CCN(C/C=C/c6ccccc6)CC5)c4)ccc3F)c2)CCN1`, the figure is 852 nM; as for `CC1(C)N=C(N)N=C(N)N1OCCCc1ccccc1`, 3.2 nM; as for `C=CCc1ccccc1OCC(O)CN(C1CCCCC1)C1CCCCC1` (stereo not drawn), 814 nM. For the molecule `CCCCCc1cnc2nc(N)nc(N)c2c1`, the XC50 stood at 1230 nM. The value for `O=C(Nc1ccccc1)Nc1cccc(-c2cc(CNCCc3ccccc3)sc2-c2ccncc2)c1` was 598 nM; that for `Nc1nc(N)c2cc(Cc3ccccc3Cl)cnc2n1` was 106 nM; that for `CC(=O)Nc1ccc(C2NC(=O)NC(c3ccccc3)=C2c2nc3ccccc3s2)cc1` (stereo not drawn) was 1110 nM. The value for `COc1cccc2cc(C(=O)N[C@@H](CC(C)C)C(=O)N[C@H](C=NN3CCCC3=O)Cc3ccccc3)oc12` was 558 nM; that for `CN(C)c1nc(NN=Cc2cc(Cl)ccc2O)nc(Nc2ccc(F)cc2)n1` was 837 nM. `COc1ccc2nccc([C@@H](O)CN3CCC(NC(=O)c4ccc(-c5ccccc5)s4)CC3)c2c1` showed an XC50 of 310 nM.

For the molecule `CC(C)OC(=O)c1ccccc1S(N)(=O)=O`, the XC50 was 674 nM. `CC(C)NCc1cccc(-c2cccc(NC(=O)c3ccc(C#N)cc3)c2)c1` returned an XC50 of 646 nM. `CC(C)(C)c1ccc(S(=O)(=O)Nc2ccccc2N2CCOCC2)cc1` displayed an XC50 of 683 nM. The value for `CCCc1cc(OCCCOc2ccccc2)ccc1OCCCON1C(=N)N=C(N)NC1(C)C` was 3.2 nM. Molecule `O=C(NCc1ccc(F)cc1)Nc1cccc(-c2ccc(-c3nc4cc(F)ccc4[nH]3)cc2)c1` displayed an XC50 of 226 nM. `CS(=O)(=O)CCNCc1cccc(-c2ccc3c(Nc4ccc(Oc5cccnc5)cc4)ccnc3c2)c1` displayed an XC50 of 142 nM.

On to `Cc1cccc(/C=C/C(=O)NC2CCC(N3CCC(c4ccccc4C)CC3)CC2)c1` (stereo not drawn), for which the XC50 came out at 1110 nM. Regarding `CCc1c[nH]c2c(N(c3ccccc3)S(C)(=O)=O)cc(C(=O)N[C@@H](Cc3ccccc3)[C@H](O)CNCc3cccc(C(F)(F)F)c3)cc12`, the XC50 is 997 nM. `c1csc(-c2ccc3c(c2)CC(NCc2c[nH]c4cnccc24)C3)c1` (stereo not drawn) had an XC50 of 738 nM. The molecule `CN(C)C(=O)c1ccc(CN(Cc2ccc3c(c2)OCCO3)Cc2ccc3c(c2)OCO3)cc1` came in with an XC50 of 175 nM. As for `CCCC(C)Nc1nc(C)cc(N[C@@H](Cc2ccccc2)C(=O)NCc2cccc(F)c2)n1` (stereo partly drawn), the figure is 882 nM; as for `CCc1ccc(NC(=O)c2cccc(CN3CCCN(Cc4ccc(OC)cc4)CC3)c2)cc1`, 919 nM. The value for `COc1cccc(OC)c1CN1CCC(N(C)CCCCCCCCN2CCC(OC(=O)Nc3ccccc3-c3ccccc3)CC2)CC1` was 458 nM; that for `O=C(/C=C/c1ccc(Cl)cc1)NCCCCCN1CCCN(C(=O)Nc2cccc(Cl)c2)CC1` was 1000 nM. As for `Cc1ccc(/C=C/C(=O)NC2CCC(N3CCC(c4ccccc4C)CC3)CC2)cc1F` (stereo not drawn), the figure is 1040 nM; as for `CCCNCc1ccc(-c2ccc(CN(C(=O)c3nn(-c4ccccc4)nc3C)C3CC3)cc2)nc1`, 210 nM. `CCN(CC)CCCNc1ncc2c(-c3ccc(NC(=O)Nc4cc(C(F)(F)F)ccc4F)c(F)c3)nn(C)c2n1`: the XC50 is 272 nM. On to `Cn1cc(CCNc2ccnc(NCCc3coc4ccccc34)n2)c2ccccc21`, for which the XC50 stood at 1060 nM. The value for `Cc1cc(N[C@@H](CC(C)C)C(=O)NC2CCCC2)nc(NCc2ccccc2C)n1` was 1340 nM.

For the molecule `N#Cc1ccc(NC(=O)NC2CCN(CCCCCNC(=O)/C=C/c3ccc(Cl)c(Cl)c3)CC2)cc1`, the XC50 came to 800 nM.

For the molecule `CS(=O)(=O)c1ccc(Nc2ncc(-c3ccc(S(C)(=O)=O)cc3)c(OCC(F)(F)F)n2)cc1`, the XC50 worked out at 401 nM.

For `O=c1ccc2ccc(F)c3c2n1CC3CN1CCC(NCc2ccc(-c3cccc(Cl)c3)nc2)CC1` (stereo not drawn), the XC50 was found to be 992 nM.

`COc1ccccc1C1CCN(C2CCC(NC(=O)/C=C/c3cc(C(F)(F)F)cc(C(F)(F)F)c3)CC2)CC1` (stereo not drawn) came in with an XC50 of 1200 nM. As to `CCCCc1cc(NCC)nc(Nc2ccc(F)cc2)n1`, the XC50 came out at 790 nM.

As for `OC(c1ccccc1)C1CN(CCc2ccccc2)CCC1(O)c1ccccc1` (stereo not drawn), the XC50 came to 1040 nM.

`O=c1cc(NCCCNCc2cc(Cl)cc(Cl)c2OCc2ccc(Cl)cc2)[nH]c2ccccc12` yielded an XC50 of 693 nM. As for `N#Cc1ccc(N/C(=N\c2cccc(Cl)c2Cl)NCc2ccc(Cl)cc2Cl)c(O)c1`, the figure is 1120 nM; as for `O=C(NC(Cc1ccccc1)C(=O)O)c1cc(=O)c2ccccc2o1` (stereo not drawn), 191 nM. In the case of `O=C(Nc1ccc2c(c1)CCN2C1CCN(Cc2ccc(F)cc2Cl)C1)c1ccco1` (stereo not drawn), the XC50 came out at 470 nM. As for `COc1ccccc1C1CCN(C2CCC(NC(=O)/C=C/c3cc(F)cc(F)c3)CC2)CC1` (stereo not drawn), the figure is 1110 nM; as for `Fc1ccccc1COc1ccc(Nc2ncnc3ccc(I)cc23)cc1Cl`, 930 nM. As for `Cc1ccccc1CN1CCCN(Cc2ccc(C(=O)Nc3ccc(C(C)(C)C)cc3)cc2)CC1`, the figure is 863 nM.

Molecule `COc1cc(Cl)c(C)cc1N(Cc1ccccc1-c1ccccc1)S(=O)(=O)c1ccc(C(F)(F)F)cc1` showed an XC50 of 1050 nM. Take `COc1cncc(/C=C/c2cncc(C(=O)NCCc3ccc(Cl)cc3Cl)c2)c1`: the XC50 worked out at 879 nM. The value for `CC(C)c1ccc(NC(=O)Nc2ccc(CCNCCCc3ccccc3)cc2)cc1` was 761 nM; that for `CCCCC(CC)NC(=O)[C@H]1CNCCN1C(=O)CCCc1ccccc1` (stereo partly drawn) was 885 nM.

As to `N#Cc1cccc(NC(=O)Nc2ccc3c(c2)CN(Cc2c[nH]c4ncccc24)C3)c1`, the XC50 is 800 nM.

Molecule `c1cc(C2=NC3CCCCC3N2)ccc1OCCCCCOc1ccc(C2=NC3CCCCC3N2)cc1` (stereo not drawn) returned an XC50 of 228 nM. Consider `O=[N+]([O-])c1ccccc1/C=N/Nc1ccnc2cc(Cl)ccc12`, for which the XC50 was found to be 876 nM.

Consider `Nc1nc(N)c2c(ccc3c2ccn3CC2CC2)n1`, for which the XC50 was found to be 211 nM.

Take `COc1c(Br)cc(Br)cc1-c1ccc(CN2CC3CCC2CC3)[nH]1`: the XC50 is 693 nM. As for `COc1cc(F)c2nccc([C@@H](O)CN3CCC(NC(=O)OCc4ccccc4)C(F)C3)c2c1` (stereo partly drawn), the figure is 407 nM; as for `COc1cc(CNCCCNc2nc3ncccc3[nH]2)c2[nH]cc(Br)c2c1`, 1160 nM; as for `Cc1cccc2nc(-c3ccc(-c4cccc(NC(=O)C(=O)c5cccn5C)c4)cc3)[nH]c12`, 976 nM.

On to `CCN1CCN(CCCNc2c3ccc(Cl)cc3nc3ccc(O)cc23)CC1`, for which the XC50 was determined as 566 nM. As for `CS(=O)(=O)c1ccc(CNCc2ccc(-c3cccc(-c4nc5cc(F)ccc5[nH]4)c3)cc2)cc1`, the figure is 315 nM; as for `C=CCc1cc(Cc2cnc(N)nc2N)c2ccc(C)nc2c1OC`, 691 nM; as for `CN(C)CCCNc1ccnc2cc(Cl)ccc12`, 283 nM.

With `O=S(=O)(NC1CCN(c2ccnc3ccccc23)C1)c1ccc(OC(F)(F)F)cc1` (stereo not drawn), the XC50 amounted to 1080 nM. For the molecule `CC(=O)Nc1ncc(C(=O)Nc2ccc(-c3cccc(-c4nc5cc(F)ccc5[nH]4)c3)cc2)s1`, the XC50 was 354 nM. As for `CCc1nc(N)nc(N)c1-c1ccc2c(c1)CCCC2`, the figure is 196 nM; as for `COc1cc(Cc2cnc(N)nc2N)cc(OCCCCC#N)c1OC`, 1040 nM; as for `Cc1ccc(NC(=O)NC2CCN(c3ccnc4cc(Cl)ccc34)C2)cc1` (stereo not drawn), 149 nM. In turn, `Cc1ccc(Nc2cc(C)nn2-c2nc(C)cc(O)n2)cc1` returned an XC50 of 864 nM. As for `Oc1ccc(-c2cncc(NCc3ccc(F)c(F)c3)c2)cc1`, the figure is 768 nM; as for `O=C(NCc1cccc2ccccc12)C(c1cc2ccccc2o1)N1CCN(C(c2ccccc2)c2ccccc2)CC1` (stereo not drawn), 667 nM. Turning to `CC1(CCCCN2CCC(Cc3ccccc3)CC2)C(=O)Nc2ccccc21` (stereo not drawn), the XC50 is 855 nM. The value for `Fc1ccc2[nH]c(-c3ccc(-c4ccc(CN5CCC(CCN6CCCCC6)CC5)cc4)cc3)nc2c1` was 129 nM. In turn, `CCOC(=O)c1[nH]c2ccc(F)cc2c1NC(=O)CN1CCN(c2cccc(C(F)(F)F)c2)CC1` came in with an XC50 of 458 nM.

In the case of `CC(C)c1ccc(CN2CCC(NC(=O)c3ccc(-c4cccc(F)c4)s3)CC2)cc1`, the XC50 turned out to be 1330 nM. As for `O=C(O)Cc1ccc(-c2c[nH]c3ncc(-c4cccc5ncccc45)cc23)cc1`, the figure is 847 nM; as for `Fc1cccc(COc2ccc(Nc3ncnc4sc(C#C[C@H]5CC[C@H](CNCC(F)(F)F)N5)cc34)cc2Cl)c1`, 1420 nM; as for `CN1CCC(OC(=O)c2cc3cc(-c4ccccc4)ccc3n2S(=O)(=O)c2ccccc2)CC1`, 1090 nM. Consider `CC(C)(C)c1ccc2[nH]c(-c3ccc(/C=C/C(=O)NCc4cccc(C(F)(F)F)c4)cc3)nc2c1`, for which the XC50 is 986 nM. The value for `Cc1ccc2[nH]c(-c3cc(-c4cccc(C#N)c4)cnc3N)nc2c1` was 117 nM. `Cc1ccc(NC(=O)c2ccc(N3CCN(c4ccncc4)CC3)cn2)cc1F` returned an XC50 of 1570 nM. `COc1cc(NC(=O)c2cccs2)c(C(=O)NCc2ccc(C)cc2)cc1OC` came in with an XC50 of 1360 nM.
